Data set [1] deals with T1, Myeloperoxidase (Homo sapiens, UniProt P05164).
T1 sequence (P05164 whole entry): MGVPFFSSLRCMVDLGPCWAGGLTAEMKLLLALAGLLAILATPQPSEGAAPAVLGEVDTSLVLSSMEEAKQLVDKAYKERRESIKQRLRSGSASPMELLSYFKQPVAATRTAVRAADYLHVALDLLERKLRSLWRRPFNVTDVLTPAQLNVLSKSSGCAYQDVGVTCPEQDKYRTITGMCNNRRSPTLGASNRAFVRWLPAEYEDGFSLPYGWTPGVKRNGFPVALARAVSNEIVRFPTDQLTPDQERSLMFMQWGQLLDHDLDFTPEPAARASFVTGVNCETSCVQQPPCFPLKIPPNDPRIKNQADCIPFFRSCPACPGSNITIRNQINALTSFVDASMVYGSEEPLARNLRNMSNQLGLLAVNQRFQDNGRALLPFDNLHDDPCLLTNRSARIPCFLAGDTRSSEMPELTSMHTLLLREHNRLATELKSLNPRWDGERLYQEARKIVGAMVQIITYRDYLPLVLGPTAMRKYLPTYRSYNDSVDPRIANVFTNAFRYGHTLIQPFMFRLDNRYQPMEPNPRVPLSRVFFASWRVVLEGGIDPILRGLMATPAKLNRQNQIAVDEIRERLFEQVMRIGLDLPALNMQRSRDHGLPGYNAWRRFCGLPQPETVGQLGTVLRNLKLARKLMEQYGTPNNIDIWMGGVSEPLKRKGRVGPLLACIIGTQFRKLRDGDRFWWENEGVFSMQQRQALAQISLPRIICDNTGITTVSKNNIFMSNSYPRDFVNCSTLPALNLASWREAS
The data set can be described thus: Inhibition of recombinant MPO (unknown origin) assessed as reduction in taurine chloramine production preincubated with enzyme and taurine followed by H2O2 addition measured after 5 mins.

Data set [2] is described as follows: Selectivity ratio of IC50 for bovine milk LPO to IC50 for recombinant MPO (unknown origin).
Another data set has as its target Lactoperoxidase (Bos taurus, UniProt P80025). The data set can be described thus: Inhibition of bovine milk LPO assessed as reduction in NaOSCN production in presence of H2O2/NaSCN after 5 mins.
Another data set relates to Plasma. The data set is described as follows: Plasma concentration in po dosed human. The class given is ADME, organism-based. The note with it: in vivo.
Data set [3] concerns the target T1, Myeloperoxidase. The data set is described as follows: Inhibition of recombinant MPO (unknown origin) assessed as reduction in LDL oxidation in presence of H2O2 and HCl after 5 mins by ELISA.
In another data set the test system is NHDF. The data set can be described thus: Cytotoxicity against NHDF assessed as reduction in cell viability after 72 hrs by MTT assay. To be noted: Homo sapiens. The class given is cell-based. In general terms: Formazan colour is commonly taken as a measure of viable cells.
Data set [4] deals with T2, Myeloperoxidase (Homo sapiens) (UniProt P05164).
T2 sequence (whole entry): T1 sequence (P05164 whole entry)
The data set is described as follows: Inhibition of recombinant MPO (unknown origin) assessed as reduction in taurine chloramine production at 5 uM preincubated with enzyme and taurine followed by H2O2 addition measured after 5 mins relative to control.

In data set [5] the target is T2, Myeloperoxidase (Homo sapiens). The data set can be described thus: Inhibition of MPO (unknown origin) assessed as apparent bi-molecular rate constant for PorFe(4)=O radical reduction by stopped-flow spectroscopic analysis.
Data set [6] shares this target. The data set can be described thus: Inhibition of MPO (unknown origin) assessed as apparent bi-molecular rate constant for PorFe(4)-OH reduction by stopped-flow spectroscopic analysis.
Data set [7] deals with T1, Myeloperoxidase. The data set is described as follows: Inhibition of MPO in human neutrophils assessed as reduction in HOCl production preincubated for 30 mins followed by H2O2 addition by APF staining based flow cytometry. (A flow cytometer gives signals particle by particle.)
Data set [8] addresses T2, Myeloperoxidase (Homo sapiens). The data set is described as follows: Inhibition of recombinant MPO (unknown origin) assessed as reduction in TMB peroxidation by measuring residual activity at 5 uM in absence of H2O2 incubated for 5 mins followed by 100 fold enzyme dilution relative to control.
The test system of data set [9] is Neutrophil. The data set can be described thus: Induction of apoptosis in human neutrophils assessed as compound concentration required for effect after 30 mins by JC1 staining based flow cytometry. It is filed as cell-based. The note with it: 0.5 h.
Data set [10] relates to Neutrophil. The data set can be described thus: Induction of apoptosis in human neutrophils assessed as increase in necrotic cells at >= 50 uM after 30 mins by JC1 staining based flow cytometry. The class given is cell-based. To be noted: 0.5 h.
Data set [11] has as its target T2, Myeloperoxidase (Homo sapiens). The data set can be described thus: Inhibition of recombinant MPO (unknown origin) assessed as reduction in TMB peroxidation by measuring residual activity at 5 uM in presence of H2O2 and NaCl incubated for 5 mins followed by 100 fold enzyme dilution relative to control.
The target is the same in data set [12]. The data set can be described thus: Inhibition of recombinant MPO (unknown origin) assessed as reduction in TMB peroxidation by measuring residual activity at 5 uM in presence of H2O2 incubated for 5 mins followed by 100 fold enzyme dilution relative to control.
Data set [13] relates to Neutrophil. The data set is described as follows: Induction of apoptosis in human neutrophils up to 1 mM after 30 mins by JC1 staining based flow cytometry. To be noted: 0.5 h. The class given is cell-based.
The target in data set [14] is T2, Myeloperoxidase (Homo sapiens). To be noted: 5 uM.
Description: Irreversible inhibition of recombinant MPO (unknown origin) assessed as reduction in guaiacol peroxidation by measuring enzyme activity recovery at 5 uM incubated for 20 mins followed by 200 fold dilution measured for 10 mins
For data set [15] the target is unchanged. To be noted: 1 to 5 uM.
Description: Inhibition of MPO in human neutrophils assessed as reduction in HOCl production at 1 to 5 uM preincubated for 30 mins followed by H2O2 addition by APF staining based flow cytometry relative to control

Molecules are shown by their SMILES. The source made the active and inactive calls. The calls are words filed in the database; no cut-off is given here.

A word on the IC50: it is the concentration that gives 50% inhibition. As usually defined, the inhibition is the drop in the measured response relative to a control, in per cent.

With `Cc1nc(N=C(N)N)nc2cc(F)ccc12`, the IC50 on Myeloperoxidase [1] was 40 nM; at Lactoperoxidase it was 3900 nM. In addition, the Ratio IC50 in data set [2] was determined as 30.

For the compound `CCN(CC)CCNC(=O)c1cc(Cl)c(N)cc1OC` [METOCLOPRAMIDE], the IC50 is 350 to 1000 nM on Myeloperoxidase [1], > 5000 nM on Myeloperoxidase [3], > 5000 nM at Lactoperoxidase and > 50000 nM in the data set on NHDF. This compound yielded a concentration in the data set on Plasma of 200 to 400 nM.

On to `Fc1ccc([C@@H]2CCNC[C@H]2COc2ccc3c(c2)OCO3)cc1` [PAROXETINE], for which the IC50 at Myeloperoxidase [1] amounted to 20 nM.

With `CN(C)CCCN1c2ccccc2Sc2ccc(C(F)(F)F)cc21`, the inhibition in data set [4] stood at 12.3%.

With `CCn1cc(C(=O)O)c(=O)c2cc(F)c(N3CCN[C@@H](C)C3)c(F)c21`, on Myeloperoxidase [1], the IC50 is > 5000 nM. Further, the Kapp in [5] is 3.1 ×10⁴ /M/s; in data set [6] it was 1.2 ×10³ /M/s. Also, the inhibition result in [4] is “inactive”.

Consider `N#CC1=C(N)Oc2cc(O)ccc2C1c1cccc(C(F)(F)F)c1` (stereo not drawn), for which, at Myeloperoxidase [1], the IC50 was 10100 nM.

Turning to `Cc1nc(N=C(N)N)nc2cc(Cl)ccc12`, the IC50 at Myeloperoxidase [1] was 96 nM.

Consider `COc1ccc2c(C)nc(NC(=N)N)nc2c1`, for which the IC50 stood at 44 nM at Myeloperoxidase [1]; 93100 nM on Myeloperoxidase [7]; 90 nM at Myeloperoxidase [3]; 3200 nM on Lactoperoxidase; 17000 nM with NHDF. Moreover, the Kapp in [5] came out at 1.9 ×10⁶ /M/s. Further, the Activity in [8] is 84%; with Neutrophil [9] it was > 50 µM; with Neutrophil [10], “Toxic”; in data set [11], 5%; in data set [12], 4%; in the data set on Neutrophil [13], “Non-Toxic”. For the same compound, in data set [2], the Ratio IC50 was determined as 73. The inhibition entry in [14] was “Active”. In data set [15], the inhibition is 67 to 71%.

For the compound `C[C@H]1CN(c2cc3c(cc2F)c(=O)c(C(=O)O)cn3C2CC2)CCN1`, the IC50 at Myeloperoxidase [1] was > 5000 nM.

`Fc1ccc2[nH]c([C@@H]3CCN(CC4NC=CN4)C3)nc2c1`: the IC50 on Myeloperoxidase [1] was 50 nM; at Myeloperoxidase [7], 314000 nM; on Myeloperoxidase [3], 120 nM; at Lactoperoxidase, > 5000 nM; in the data set with NHDF, > 50000 nM. In addition, the Activity is 83% in data set [8]; > 50 µM in the data set on Neutrophil [9]; 84% in data set [11]; 84% in data set [12]; “Non-Toxic” with Neutrophil [13].

With `Cc1nc(N=C(N)N)nc2ccc(F)cc12`, the IC50 at Myeloperoxidase [1] worked out at 145 nM.

On to `Cc1cccc(Nc2ccccc2C(=O)O)c1C` [MEFENAMIC ACID], for which the IC50 on Myeloperoxidase [1] stood at 980 nM; on Myeloperoxidase [3], 2210 nM. Also, the Activity was 87% in data set [8], 87% in [11] and 82% in data set [12].

`O[C@@H]1CN[C@H](c2nc(Cc3ccc(F)cc3Cl)no2)C1`: on Myeloperoxidase [1], the IC50 amounted to 4680 nM.

For the compound `O=C(N/N=C/c1ccc([N+](=O)[O-])o1)c1ccc(O)cc1` [NIFUROXAZIDE], at Myeloperoxidase [1], the IC50 is > 5000 nM.

On to `O=c1c(O)c(-c2ccc(O)cc2)oc2cc(O)cc(O)c12` [KAEMPFEROL], for which, on Myeloperoxidase [1], the IC50 stood at 2240 nM. Moreover, the figures for the Activity in data set [8], in [11] and in [12] were 78%, 84% and 81%, respectively.

As for `O=c1cc(-c2ccc(O)cc2)oc2cc(O)ccc12`, the IC50 on Myeloperoxidase [1] was 5790 nM.

For the compound `Nc1cc(=O)[nH]c(CSc2ccc(F)c3ccccc23)n1`, in data set [4], the inhibition was found to be 37.2%.

As to `Cc1nc(N=C(N)N)nc2ccc(Br)cc12`, at Myeloperoxidase [1], the IC50 amounted to 756 nM.

For the compound `COc1cc(N[C@H](C)CCCN)c2ncccc2c1`, the values for the IC50 at Myeloperoxidase [1], at Lactoperoxidase and in the data set with NHDF were 300 nM, 800 nM and > 50000 nM, respectively. The values for the Activity in data set [8], in data set [11] and in data set [12] were 86%, 86% and 91%, respectively. Also, the Ratio IC50 in data set [2] came to 3.

As for `Fc1ccc2oc([C@H]3CCNC3)nc2c1`, the IC50 on Myeloperoxidase [1] was 1740 nM; in the data set with NHDF it was > 50000 nM.

`Cc1ccc(-c2cc(C(F)(F)F)nn2-c2ccc(S(N)(=O)=O)cc2)cc1`: the inhibition in data set [4] was determined as 11%.

Regarding `Cc1nc(NC(=N)N)nc2ccc(Cl)cc12`, the IC50 at Myeloperoxidase [1] worked out at 630 nM.

`C[C@H](COc1ccccc1)N[C@@H](C)[C@@H](O)c1ccc(O)cc1`: the inhibition in data set [4] was found to be 5.32%.

For the compound `CCN1CCC[C@H]1CNC(=O)c1cc(S(N)(=O)=O)ccc1OC` [LEVOSULPIRIDE], at Myeloperoxidase [1], the IC50 was determined as 7680 nM.

On to `O=c1cc(-c2ccc(O)cc2)oc2cc(O)cc(O)c12` [APIGENIN], for which the IC50 on Myeloperoxidase [1] was determined as 3800 nM; at Lactoperoxidase, 17800 nM. In addition, the Ratio IC50 in [2] is 5.6.

Take `Cc1nc(NC(=N)N)nc2cc(Br)ccc12`: the IC50 on Myeloperoxidase [1] was determined as 106 nM.

`O=c1c(O)c(-c2ccc(O)c(O)c2)oc2cc(O)cc(O)c12` [QUERCETIN]: the IC50 was 1150 nM at Myeloperoxidase [1], 3100 nM at Myeloperoxidase [3], 6100 nM at Lactoperoxidase and > 50000 nM in the data set on NHDF. The Activity in data set [8] amounted to 72%; in data set [11] it was 79%; in data set [12] it was 78%. In addition, the Ratio IC50 in data set [2] stood at 5.

Regarding `c1c2c(cc3c4n(nc13)CCS4)OCO2`, at Myeloperoxidase [1], the IC50 is 85 nM.

Consider `CSc1ccc2c(c1)N(CC[C@H]1CCCCN1C)c1ccccc1S2`, for which the IC50 on Myeloperoxidase [1] was > 5000 nM. For the same compound, the Kapp turned out to be 5.2 ×10⁶ /M/s in data set [5] and 1.7 ×10⁴ /M/s in [6]. For the same compound, in data set [4], the inhibition amounted to 24.2%.

Turning to `NNc1nncc2ccccc12` [HYDRALAZINE], the Kapp in data set [5] amounted to 7.1 ×10⁶ /M/s. Also, the Activity in [8] came to 76%; in data set [11] it was 6%; in data set [12], 9%. Further, the Ratio IC50 in data set [2] worked out at 1.3. Moreover, the results for the IC50 on Myeloperoxidase [3], at Lactoperoxidase and with NHDF were 2360 nM, 1200 nM and > 50000 nM, respectively.

Consider `NCCCCc1c[nH]c2ccc(F)cc12`, for which, on Myeloperoxidase [1], the IC50 turned out to be 8 nM.

`Cc1nc(NC(=N)N)nc2ccccc12`: on Myeloperoxidase [1], the IC50 came out at 900 nM.

For `CC(C)NCC(=O)c1nc2cc(F)ccc2[nH]1`, the IC50 on Myeloperoxidase [1] was 130 nM; at Lactoperoxidase, > 5000 nM; in the data set on NHDF it was > 50000 nM. Further, the Activity in [8] turned out to be 79%; in [11], 81%; in data set [12], 87%.

These data come from ChEMBL document CHEMBL4011652, “Discovery of Novel Potent Reversible and Irreversible Myeloperoxidase Inhibitors Using Virtual Screening Procedure” (J Med Chem, 2017).
